Data: patent US20240075003A1, “Pelargonic Acid for Use Against Viral Infections” (priority 2021, published 2024)
“Also recorded” adds a separate entry of the source.

Legend:
[1] = tested on: Porcine Reproductive and Respiratory Syndrome virus (PRRS); experiment: Cytopathic effect (CPE) in Vero cells infected with PRRS virus, MCFA mixtures added; format: cell-based; parameters: key: 4 = total destruction of the cells; 3 = medium destruction; 2 = low destruction; 1 = no destruction; settings: 0.1% concentration in tissue culture, 5 days post infection
[2] = tested on: African Swine Fever Virus (ASFV)
PED virus = format: cell-based, Porcine Epidemic Diarrhea virus
ASF = tested on: ASF; parameters: species or system African Swine Fever Virus

CCCCCCCC(=O)O [100% C8, caprylic acid]
CPE (first test) [1]: 2/2 | CPE (second test) [1]: 2/2

CCCCCCCCCC(=O)O [100% C10, capric acid]
CPE (first test) [1]: 2 | CPE (second test) [1]: 4

CCCCCCCCC(=O)O [Composition F1, pelargonic acid]
Cq value for ASFV compared to positive control [2]: significantly increase the Cq value; also recorded: induced a statistical increase in Cq value

CCCCCC(=O)O [100% C6, caproic acid]
CPE (first test) [1]: 3/3 | CPE (second test) [1]: 3/3

CCCCCCCCC(=O)O [100% C9, pelargonic acid]
Protection against viral infection and cytolytic effect of the cells (PED virus): gave the best results | CPE (first test) [1]: 2/2 | CPE (second test) [1]: 2/2 | Viral load of ASF compared with ester form or untreated feed (ASF): significantly reduced the viral load
